Data taken from patent US7462598B2, “Antimicrobial theta defensins, analogs thereof, and methods of use” (priority 2002, dated 2008).
Marks after values point to notes of the source that are not given here. Bridge positions count the residues as written; N and C are the ends. Peptide text beside a SMILES is read from it.

Columns and labels:
[1] = tested on: C. albicans 16820; test: Cell-suspension microbicidal assay (MMC); type: cell-based, Candida albicans; conditions: for MMC, C. albicans: lowest concentration that reduced cell viability by 99.9%, 10 mM PIPES, 5 mM glucose, pH 7.4, 2 h 37° C.
Description: (§1) To test microbicidal activities, the activities of each peptide against S. aureus 502a, E. coli ML35, and C. albicans 16820 were assessed essentially as described in Example I with modifications to allow for simultaneous analysis of all twenty peptides. Briefly, two-fold serial dilutions of each peptide (in 0.01% acetic acid 0.062-8.0 μg/ml final concentrations) were mixed with 10 mM PIPES, pH 7.4, containing 5 mM glucose in sterile polystyrene 96-well plates (Corning, N.Y.). Aliquots of log-phase bacteria or yeast were added to a 2×10^6 CFU/ml final density as determined by A620. After 2 h incubation at 37° C., 15 μl of the incubation mixture was removed and serially diluted ten-fold from 1:10 to 1:10^6 in trypticase soy broth (bacteria) or Sabaraud dextrose broth (C. albicans). The diluted cell suspensions were grown 24-48 h at 37° C. until cell pellets were visible. Microbicidal activity was determined as absence of growth and was correlated to CFU/ml in control experiments where activity was determined in parallel by colony counting (see Example I). Absence of growth at the 1:10^3 dilution is equivalent to a 3-log reduction in microbial viability.
(§2) The microbicidal activities of each peptide against E. coli ML35, S. aureus 502a, and C. albicans 16820 were determined with cell-suspension microbicidal assays in 96-well plates (see Example II). Briefly, log-phase cells (2×10^6 CFU/ml final) were incubated with increasing concentrations of peptides (0-8 μg/ml final) in 50 μl of 10 mM PIPES, 5 mM glucose, pH 7.4, for 2 h at 37° C. Incubation mixtures were diluted 1:10 to 1:10^6 with trypticase-soy broth (bacteria) or Sabaraud dextrose broth (fungi) and incubated at 37° C. for 24-48 h until cell pellets were visible. Microbicidal activities (confirmed in control experiments as described in Example II) were determined as the absence of a cell pellet in the various dilutions. Peptide concentrations that caused ≧99.9% killing (absence of a cell pellet at 1:10^3 dilution) were taken as the minimum microbicidal concentrations (MMC).

[2] = tested on: E. coli ML35; test: Membrane permeabilization assay (ONPG hydrolysis); type: cell-based, Escherichia coli; conditions: rates at 1 μg/ml concentration of each peptide
Description: For the membrane permeabilization assay, the permeabilization of bacterial cytoplasmic membranes was determined by measuring hydrolysis of o-nitrophenyl-β-D-galactcpyranoside (ONPG) in E. coli ML35 (Sitaram et al., FEBS Lett. 303:265-268 (1992); Lehrer et al.,. J. Immunol. Methods 108:153-158 (1988)). Peptides dissolved in 5 μl of 0.01% acetic acid were two-fold serially diluted with 10 mM PIPES, pH 7.4, containing 3 mM ONPG, to final peptide concentrations of 0-8.0 μg/ml. Log-phase bacteria, prepared in PIPES buffer as described for the microbicidal assay (see Example I), were added to 1×10^6 CFU/ml final density in a final volume of 90 μl. ONPG hydrolysis was measured at 405 nm for 60 min using a SpectraMAX 190 plate reader and SOFTmaxPRO 3.1 (Molecular Devices Corp., CA). […]

[3] = tested on: S. aureus 502a; test: Cell-suspension microbicidal assay (MMC); type: cell-based, Staphylococcus aureus; conditions: for MMC, S. aureus: lowest concentration that reduced cell viability by 99.9%, 10 mM PIPES, 5 mM glucose, pH 7.4, 2 h 37° C.
Description: as §1, §2

[4] = tested on: E. coli ML35; test: Cell-suspension microbicidal assay (MMC); type: cell-based, Escherichia coli; conditions: for MMC, E. coli: lowest concentration that reduced cell viability by 99.9%, 10 mM PIPES, 5 mM glucose, pH 7.4, 2 h 37° C.
Description: as §1, §2

[5] = tested on: S. aureus 502a; type: cell-based, Staphylococcus aureus; conditions: for enhancement of staphylocidal activity by serum: 10% normal human serum, FIG. 7
Description: Dose-dependent staphylocidal activity of each peptide was determined in assays containing 10% normal human serum. Percentages of killing are relative to activities of peptide-containing incubations in which serum was omitted.
(§3) To determine the effects of serum, salt, calcium chloride and magnesium chloride on microbicidal activities, peptide activities were determined in assays containing varying ionic strength, divalent cations, and serum. The effect of serum on staphylocidal activity of each peptide was determined by incubating 1×10^6 CFU/ml of S. aureus 502a with increasing peptide concentrations (0.5-4 μg/ml) in 10 mM PIPES, pH 7.4, containing 10% normal human serum for 2 h at 37° C. The effect of sodium chloride on staphylocidal activities was assessed with 5 μg/ml of each peptide in 10 mM PIPES, pH 7.4, containing varying concentrations of sodium chloride (0-160 mM). Effects of divalent cations, CaCl2, or MgCl2 (0-5.6 mM) were assessed in microbicidal assays against E. coli ML35. Bactericidal activities were determined by colony counting (see Example II), and microbicidal potencies were expressed as percent killing as follows:
(§4) [formula] where A=surviving bacteria (CFU/ml) after initial incubation with each peptide in buffer containing serum, salt, or divalent cations and Ao=bacterial CFU/ml in the “no-peptide” controls.

[6] = tested on: S. aureus 502a, E. coli ML35, and C. albicans 16820; test: Cell-suspension microbicidal assay, statements across the test organisms (lowest MMC, overall ranges); type: cell-based; conditions: for 99.9% kill against one of the bacterial organisms: at 8 μg/ml, the highest concentration tested; for M: peptide concentration that kill 99.9% of either S. aureus, E. coli, or C. albicans, lowest MMC value; for fold higher MMC than the native cyclic peptide: de-cyclized analog versus native θ-defensin, three test organisms
Description: as §1, §2
(§5) A selectivity index (SI=H/M) was calculated as a ratio of a peptide concentration (μg/ml) that causes 3% hemolysis (H) obtained from a dose-dependent hemolysis plot over 0.3 to 3 μg/ml of each peptide in PBS and the lowest MMC value (M) for any of the three test microorganisms (see Example II; Table 2).

[7] = tested on: human erythrocytes; test: Hemolysis assay; type: cell-based
Description: For the hemolysis assay, the hemolytic activity of each peptide was determined by the method of Tam et al. (Tam et al., Eur. J. Biochem. 267:3289-3300 (2000)). Blood was obtained from a healthy donor in accordance to a protocol approved by the Institutional Review Board. Normal human serum was prepared from the same individual and stored at −20° C. Red blood cells (RBC) were prepared from blood collected in EDTA. RBC were harvested at 234×g for 10 min, 22° C., washed four times with 10 mM sodium phosphate, 150 mM NaCl, pH 7.4 (PBS), containing 4 mM EDTA and resuspended in PBS without EDTA. Peptides dissolved in 10 μl 0.01% HOAc were diluted with PBS to final concentrations of 0.3-100 μg/ml. RBC were added to a 2% final density in 100 μl. Incubation mixtures were also prepared with 10% serum. After 1 h incubation at 37° C., the cell suspensions were centrifuged at 234×g for 10 min, 22° C. Fifty-μl samples of the supernatants were removed, and the absorbance at 405 nm (A) was measured. Hemolytic activity of each peptide was calculated relative to lysis by 1% NP-40 using the following formula:
as §5

[8] = tested on: S. aureus 502a; type: cell-based, Staphylococcus aureus; conditions: physiologic salt / various concentrations of salt; FIG. 6
Description: The activity of each peptide (5 μg/ml) was determined in assays containing increasing concentrations of sodium chloride. Staphylocidal activities were expressed as percentages of killing obtained in the absence of additional NaCl.
as §3, §4

Compound | MMC, C. albicans [1] [µg/mL] | ONPG hydrolysis [2] | Killing percentage, S. aureus (MMC not reached) ([3]; at 8 μg/ml, the highest concentration tested) | fold lower staphylocidal activity than RTD-3 and PG-1 ([3]; from MMC, Table 2) | MMC, S. aureus [3] [µg/mL] | MMC, E. coli [4] [µg/mL] | inhibition of bactericidal activity in serum ([5]; 502a) | 99.9% kill against one of the bacterial organisms [6] | M [6] [µg/mL] | enhancement of staphylocidal activity by serum [5] [%] | fold lower candidacidal potency than native PG-1 ([1]; from MMC, Table 2) | fold lower staphylocidal potency than native PG-1 ([3]; from MMC, Table 2) [fold] | fold lower potency against E. coli than native PG-1 ([4]; from MMC, Table 2) | percent less hemolytic than native PG-1 [7] | fold less microbicidal than PG-1 ([6]; Table 5) | effect of salt on microbicidal activity (in words) [8] | H ([7]; peptide concentration that causes 3% hemolysis, calculated from dose-dependent hemolysis plot over 0.3-3 μg/ml in PBS) [µg/mL] | fold higher MMC than the native cyclic peptide [6]
CC(C)C[C@@H]1NC(=O)[C@@H]2CSSC[C@H](NC(=O)[C@H](CCCNC(=N)N)NC(=O)[C@@H](NC(=O)[C@@H](NC(=O)CNC(=O)[C@@H](N)CCCNC(=N)N)C(C)C)CSSC[C@@H](C(=O)N[C@@H](CCCNC(=N)N)C(N)=O)NC1=O)C(=O)N[C@@H](CC(C)C)C(=O)N[C@H]1CSSC[C@H](NC(=O)[C@H](C(C)C)NC(=O)CNC(=O)[C@H](CCCNC(=N)N)NC(=O)[C@H](CCCNC(=N)N)NC1=O)C(=O)N[C@@H](CCCNC(=N)N)C(=O)N2 [3:1 aRTD-3-NH] (H-RGVCRCLCRRGVCRCLCR-NH2; disulfide 4-17, 6-15, 8-13; N-terminus assumed) | 0.8 | 9.4 (A405/sec) · 10^−5 | (99%)^b | at least 8 fold | > 8 | 1.0 | 20-50% | did not achieve a 99.9% kill | 0.75 |  |  |  |  |  |  |  |  | 
CC(C)C[C@H](NC(=O)[C@H](CCCNC(=N)N)NC(=O)CNC(=O)CN)C(=O)N[C@H]1CSSC[C@@H](C(=O)N[C@H](C(=O)NCC(=O)N[C@@H](CCCNC(=N)N)C(=O)N[C@@H](CCCNC(=N)N)C(N)=O)C(C)C)NC(=O)[C@H](C(C)C)NC(=O)[C@@H]2CSSC[C@H](NC(=O)[C@H](Cc3ccc(O)cc3)NC1=O)C(=O)N[C@@H](CCCNC(=N)N)C(=O)N[C@@H](CCCNC(=N)N)C(=O)N[C@@H](CCCNC(=N)N)C(=O)N[C@@H](Cc1ccccc1)C(=O)N2 [4:4 PG-1-NH] (H-GGRLCYCRRRFCVCVGRR-NH2; disulfide 5-14, 7-12; N-terminus assumed) | 1.5 | 12.4 (A405/sec) · 10^−5 |  |  | 0.5 | 1.0 |  |  | 0.5 | ~40 |  |  |  |  |  |  |  | 
CC(C)C[C@H](NC(=O)[C@H](CCCNC(=N)N)NC(=O)CNC(=O)CNC(=O)[C@@H](N)CCCNC(=N)N)C(=O)N[C@H]1CSSC[C@@H](C(=O)N[C@H](C(=O)NCC(=O)N[C@@H](CCCNC(=N)N)C(=O)O)C(C)C)NC(=O)[C@H](C(C)C)NC(=O)[C@@H]2CSSC[C@H](NC(=O)[C@H](Cc3ccc(O)cc3)NC1=O)C(=O)N[C@@H](CCCNC(=N)N)C(=O)N[C@@H](CCCNC(=N)N)C(=O)N[C@@H](CCCNC(=N)N)C(=O)N[C@@H](Cc1ccccc1)C(=O)N2 [PG-1-OH] (H-RGGRLCYCRRRFCVCVGR-OH; disulfide 6-15, 8-13; N-terminus assumed) | 1.5 | 10.7 (A405/sec) · 10^−5 |  |  | 2.0 | 1.5 |  |  | 1.5 | 25 | 1- to 2 fold | 5 | 1- to 2 fold | about 50% | 2-3 fold |  |  | 
CC[C@H](C)[C@@H]1NC(=O)[C@@H]2CSSC[C@H](NC(=O)[C@H](CCCNC(=N)N)NC(=O)[C@@H](NC(=O)[C@H](Cc3ccccc3)NC(=O)CN)CSSC[C@@H](C(=O)N[C@H](C(=O)N[C@@H](CCCNC(=N)N)C(=O)O)[C@@H](C)O)NC1=O)C(=O)N[C@@H](CC(C)C)C(=O)N[C@H]1CSSC[C@H](NC(=O)[C@H](C(C)C)NC(=O)CNC(=O)[C@H](CCCNC(=N)N)NC(=O)[C@H](CCCNC(=N)N)NC1=O)C(=O)N[C@@H](CCCNC(=N)N)C(=O)N2 [aRTD-1-OH] (H-GFCRCLCRRGVCRCICTR-OH; disulfide 3-16, 5-14, 7-12; N-terminus assumed) | 4.0 | 2.4 (A405/sec) · 10^−5 |  |  | 4.5 |  |  | did not achieve a 99.9% kill | 4 |  |  |  |  |  |  | intermediate | 15.0 | 4 fold
CC(C)C[C@@H]1NC(=O)[C@@H]2CSSC[C@H](NC(=O)[C@H](CCCNC(=N)N)NC(=O)[C@@H](NC(=O)[C@@H](NC(=O)CN)C(C)C)CSSC[C@@H](C(=O)N[C@@H](CCCNC(=N)N)C(=O)N[C@@H](CCCNC(=N)N)C(=O)O)NC1=O)C(=O)N[C@@H](CC(C)C)C(=O)N[C@H]1CSSC[C@H](NC(=O)[C@H](C(C)C)NC(=O)CNC(=O)[C@H](CCCNC(=N)N)NC(=O)[C@H](CCCNC(=N)N)NC1=O)C(=O)N[C@@H](CCCNC(=N)N)C(=O)N2 [aRTD-3-OH] (H-GVCRCLCRRGVCRCLCRR-OH; disulfide 3-16, 5-14, 7-12; N-terminus assumed) | 1.5 |  |  |  | 1.5 |  |  |  | 1.5 |  |  |  |  |  |  | least affected |  | 1-2 fold
